Laboratory results reported in patent US4435404A, “Carbostyril derivatives” (priority 1980, dated 1984).
Read-outs that look alike come from different tables or passages of the source.

Columns and labels:
[1] = tested on: collagen-induced aggregation in rabbit platelet; assay: Inhibition effect on collagen-induced aggregation in rabbit platelet; type: cell-based; details: for inhibition at 100 µM / inhibition at 10 µM / inhibition at 1 µM / inhibition at 0.1 µM: Oryctolagus cuniculus, Platelet, read-out: Inhibition effect on collagen-induced aggregation
Protocol: (§1) The platelet aggregation inhibitory effect is measured by using AG-II aggregometer (manufactured by Bryston Manufacturing Co.). The blood sample used for the test is a 1/9 (by volume) mixture of sodium citrate and whole blood collected from rabbit. Said sample is subjected to 10-minute centrifugal separation at 1,000 r.p.m. to obtain a platelet rich plasma (PRP). The thus obtained PRP is separated, and the remaining blood sample is further subjected to 15-minute centrifugal separation at 3,000 r.p.m. to obtain a platelet poor plasma (PPP).
(§2) The number of platelets in the PRP is counted by the Brecher-Clonkite Method, and the PRP is diluted with the PPP to prepare a PRP sample with platelet concentration of 300,000/mm^3 for the adenosine diphosphate (ADP)-induced aggregation test. There is also prepared a PRP sample with platelet concentration of 450,000/mm^3 for the collagen-induced aggregation test.
(§3) 0.6 Milliliter of said PRP sample is added into 0.01 ml of a solution of a test compound of a predetermined concentration and the mixture is placed in a 37° C. thermostat for one minute. Then 0.07 ml of an ADP or collagen solution is added to the mixture. Transmittance of this mixture is determined and the change of transmittance is recorded by using the aggregometer at stirrer speed of 1,100 r.p.m. […] The ADP solution is adjusted to a concentration of 7.5×10^-5 M, and the collagen solution is prepared by triturating 100 mg of collagen with 5 ml of said buffer and the supernatant is used as collagen inducer. Acetylsalicylic acid is used as control for the ADP-induced aggregation test and the collagen-induced aggregation test, respectively. The platelet aggregation inhibitory effect is measured in terms of percent inhibition with respect to the aggregation rate of the controls. The aggregation rate is calculated from the following formula:
(§4) Aggregation rate=[(c-a)/(b-a)]×100
(§5) b: transmittance of PRP containing a test compound and an aggregation inducer

[2] = tested on: ADP-induced aggregation in rabbit platelet; assay: Inhibition effect on ADP-induced aggregation in rabbit platelet; type: cell-based; details: for inhibition at 100 µM / inhibition at 10 µM / inhibition at 1 µM / inhibition at 0.1 µM: Oryctolagus cuniculus, Platelet; for inhibition at 10 µM / inhibition at 1 µM / inhibition at 0.1 µM: read-out: Inhibition effect on ADP-induced aggregation; for inhibition at 0.1 µM: concentration of the test compound solution 10^-7 mole
Protocol: as §1, §2, §3, §4, §5

Acute Toxicity Test = details: mouse, in vivo; male mice, oral administration
Protocol: The test compounds were administered orally to the mice and LD50 (mg/kg) of the compounds was determined.

[3] = concentration of the test compound solution 10^-4 mole
[4] = concentration of the test compound solution 10^-5 mole
[5] = concentration of the test compound solution 10^-6 mole
[6] = concentration of the test compound solution 10^-7 mole

Row | Structure (SMILES) | inhibition at 100 µM [1, 3] [%] | inhibition at 10 µM [1, 4] [%] | inhibition at 100 µM [2, 3] [%] | inhibition at 10 µM [2, 4] [%] | inhibition at 1 µM [2, 5] [%] | LD50 (Acute Toxicity Test) [mg/kg] | inhibition at 1 µM [1, 5] [%] | also measured
1 | CN(Cc1cccs1)C(=O)CCCOc1ccc2[nH]c(=O)ccc2c1 [No. 5, 6-{3-[N-Methyl-N-(2-thienylmethyl)aminocarbonyl]propoxy}carbostyril] | 85.7 | 30.7 | 100 | 54.7 | 7.1 | > 1000 |  | 
2 | O=C1CCc2cc(OCC(=O)N3CCOCC3)ccc2N1 [No. 65, 6-(Morpholinocarbonylmethoxy)-3,4-dihydrocarbostyril, reference compound] | 5 | 0 | 13 | 6 | 0 |  | 0 | 
3 | COc1ccc(CCN(CCO)C(=O)CCCCOc2ccc3[nH]c(=O)ccc3c2)cc1OC [No. 20, 6-{4-[N-(2-Hydroxyethyl)-N-(β-3,4-dimethoxyphenethyl)aminocarbonyl]butoxy}carbostyril] |  | 82.6 | 100 | 73.2 | 28.8 | > 1000 | 29.2 | 
4 | CCC(O)CN(C(=O)CCCCOc1ccc2[nH]c(=O)ccc2c1)C1CCCCCCC1 (centres unmarked) [No. 9, 6-{4-[N-(2-Hydroxybutyl)-N-cyclooctylaminocarbonyl]butoxy}carbostyril] |  | 100 | 100 | 84.9 | 40.1 | > 1000 | 100 | inhibition at 0.1 µM [1, 6]: 43.2%; inhibition at 0.1 µM [2]: 5.6%
5 | COCCN(C(=O)CCCCOc1ccc2[nH]c(=O)ccc2c1)C1CCCCC1 [No. 23, 6-{4-[N-(2-Methoxyethyl)-N-cyclohexylaminocarbonyl]butoxy}carbostyril] |  | 100 | 100 | 100 | 91.9 | > 1000 | 90.5 | inhibition at 0.1 µM [1, 6]: 67%; inhibition at 0.1 µM [2]: 40.4%
6 | O=C1CCc2cc(OCCCCC(=O)N(CCO)Cc3ccccc3)ccc2N1 [No. 22, 6-{4-[N-(2-Hydroxyethyl)-N-benzylaminocarbonyl]butoxy}-3,4-dihydrocarbostyril] |  | 49.2 | 100 | 63.2 | 28.8 | > 1000 | 16.1 | 
7 | CC(C)NC(=O)CCOc1ccc2c(c1)CCC(=O)N2 [No. 64, 6-(N--Isopropylaminocarbonylethoxy)-3,4-dihydrocarbostyril, reference compound] |  |  |  |  |  |  |  | Inhibition effect on collagen-induced aggregation [1, 3]: 17%; Inhibition effect on collagen-induced aggregation [1, 5]: 0%; Inhibition effect on collagen-induced aggregation [1, 6]: 0%; Inhibition effect on ADP-induced aggregation [2, 3]: 18%; Inhibition effect on ADP-induced aggregation [2, 4]: 13%; Inhibition effect on ADP-induced aggregation [2, 5]: 7%
8 | CC(=O)Oc1ccccc1C(=O)O [No. 69, Aspirin, reference compound] |  |  |  |  |  |  |  | inhibition at 1 µM [1]: 7%; inhibition at 10 µM [1]: 9%; inhibition at 100 µM [1]: 65%
9 | O=C1CCc2cc(OCCCC(=O)N(C3CCCCC3)C3CCCCC3Cl)ccc2N1 (centres unmarked) [No. 30, 6-{3-[N--Cyclohexyl-N--(2-chlorocyclohexyl)-aminocarbonyl]propoxy}-3,4-dihydrocarbostyril, reference compound] |  |  |  |  |  |  |  | Inhibition effect on collagen-induced aggregation [1, 3]: 91.5%; Inhibition effect on collagen-induced aggregation [1, 4]: 89.9%; Inhibition effect on collagen-induced aggregation [1, 5]: 50.3%; Inhibition effect on ADP-induced aggregation [2, 3]: 89.8%; Inhibition effect on ADP-induced aggregation [2, 4]: 82.9%; Inhibition effect on ADP-induced aggregation [2, 5]: 38.4%
10 | O=C1CCc2cc(OCCCC(=O)Nc3c(Cl)cccc3Cl)ccc2N1 [No. 44, 6-[3-(o,o-Dichloroanilinocarbonyl)propoxy]-3,4-dihydrocarbostyril, reference compound] | 95.1 | 27.6 | 36.8 | 5.3 |  |  |  | 
